We go through one molecule from publication PMC9820345, “Metal Complexes of a 5-Nitro-8-Hydroxyquinoline-Proline Hybrid with Enhanced Water Solubility Targeting Multidrug Resistant Cancer Cells” (International Journal of Molecular Sciences, 2022).

A short description of data set [1]: Aqueous solubility at physiological pH (S7.4). The format is physicochemical. The note with it: water, pH 7.4, aqueous buffer.
Data set [2] can be described thus: Formation constants of Cu(II) complexes by UV-vis spectrophotometric titrations. The following applies: I = 0.1 M KCl, 25.0 °C. It counts as physicochemical. Here is the method:
An Agilent Cary 8454 diode array spectrophotometer (Santa Clara, CA, USA) was used to obtain UV-vis spectra in the wavelength range 200–1000 nm, while spectra were recorded for the Fe(II)-containing samples using an Avantes (Avantes B.V., Apeldoorn, The Nederlands) AvaSpec-ULS2048CL-EVO spectrometer with an AvaLight-DHc light source and FDP-7UVIR200-2-VAR transmission dip probe. The titrations for the Fe(II)-containing samples were performed in a laboratory glove box (GP(Campus), Jacomex) (O2 content ≤ 1 ppm). The path length (ℓ) was 1 cm in most cases (the actual ℓ is always indicated in the legends of the figures). The concentrations of the ligands and complexes were between 40 and 200 µM, and 0.2 M KNO3 for the organometallic complexes or 0.1 M KCl for the Fe(II/III), Cu(II), and Zn(II) complexes were used to adjust the constant ionic strength. For HSA containing samples, complex concentrations were 50 µM, and 0.5, and 2 equiv. biomolecules were added for kinetic studies, respectively. For HSA model containing samples, complex concentrations were 50 µM, and the model concentrations were 0–150 µM and 0–500 µM, respectively, and the pH was 7.4 (PBS’). Spectra were always background and baseline corrected. The computer program HypSpec was used to obtain stability constants. Hydrolysis constants of the Fe(III), Fe(II), RuCym, and RhCp* species were included in the speciation models (see Table S4 with the data taken from References).

Data set [3] has as its system tested cancer cell lines (MES-SA, MES-SA/Dx5, Colo205, Colo320). Kind of data set: In vitro cytotoxicity, summary over the tested cancer cell lines. The note with it: Homo sapiens, range over MES-SA. The format is cell-based. On the procedure:
The in vitro cytotoxicity of HQNO2-L-Pro and its RuCym and RhCp* complexes was assayed in two chemosensitive and resistant cell pairs to reveal their potential MDR selective toxicity. On the one hand, the parental human uterine sarcoma MES-SA cell line and its P-gp positive MDR derivative MES-SA/Dx5 cell line were applied; on the other hand, the human colon adenocarcinoma Colo205 cell line and its doxorubicin-resistant counterpart, the Colo320 cell line, were involved. The determined IC50 values using 72 h (Colo205 and Colo320) or 144 h incubation time (MES-SA and MES-SA/Dx5) are shown in Table 4. Doxorubicin was used as a control, and IC50 values obtained for the analogous HQCl-L-Pro compounds are also shown for comparison. […] The lower cytotoxicity of HQNO2-L-Pro is most likely due to its very strong hydrophilic features.
Inhibition of the cell growth (expressed as IC50: inhibitory concentration that reduces by 50% the growth of the cells exposed to the tested compounds) was determined from the sigmoid curve where 100 − ((ODsample − ODmedium control)/(ODcell control − ODmedium control)) × 100 values were plotted against the logarithm of compound concentrations. […]

A word on the solubility: it is how much of the substance goes into solution per volume. High values mean a readily soluble substance, low ones a poorly soluble substance. The IC50 is the concentration that gives 50% inhibition. Read a low IC50 as greater potency in that assay. `O=C(O)[C@@H]1CCCN1Cc1cc([N+](=O)[O-])c2cccnc2c1O` [HQNO2-L-Pro, (2S)-1-((8-hydroxy-5-nitroquinolin-7-yl)methyl)pyrrolidin-1-ium-2-carboxylate]: in data set [1], the solubility is > 10 mM. In data set [2], the “logβ [M(HL)2]” value was found to be 38.60 ± 0.03, the “logβ [M(HL)(L)]” value is reported as 31.75 ± 0.03, the “logβ [M(HL)]” value turned out to be 19.40 ± 0.03 and the “logβ [M(L)2]” value is on record as 22.99 ± 0.03. Further, in data set [2], the “logβ [M(L)]” value amounted to 14.45 ± 0.03. The IC50 in data set [3] is 32.4 to 226 µM.
